Assay results as given in EPA's ToxValDB 9.5 (doi:10.2903/j.efsa.2017.4790).

Assays:
Apis mellifera = conditions: acute, mortality
Canidae = conditions: chronic; duration: 1 years; oral; Dog Other; organ weight
Colinus virginianus = conditions: acute, oral, mortality
Folsomia candida = conditions: chronic/long-term; mortality
Rattus norvegicus = conditions: for LD50: acute, mortality
Daphnia magna = conditions: chronic/long-term; duration: 21 days; reproduction
Oncorhynchus mykiss = conditions: chronic/long-term; duration: 21 days; behavior

## CCCCCCC(=O)Oc1c(Br)cc(C#N)cc1Br [Bromoxynil heptanoate]
Anas platyrhynchos; reproductive
  NOAEL: 15.9 mg/kg-day
Apis mellifera; dermal
  LD50: > 201 µg/piece
Apis mellifera; oral, unspecified
  LD50: > 201 µg/piece
Canidae
  NOAEL: 0.3 mg/kg-day
Colinus virginianus; diet
  LD50: 1900 mg/kg-day
Colinus virginianus
  LD50: 379 mg/kg-day
Folsomia candida
  NOEC: 70.5 mg/kg
Rattus norvegicus; F
  LD50: 292 mg/kg-day
Rattus norvegicus; developmental, development
  NOAEL: 4 mg/kg-day

## N#Cc1cc(Br)c(O)c(Br)c1 [Bromoxynil]
Anas platyrhynchos; reproductive
  NOAEL: 10.9 mg/kg-day
Canidae
  NOAEL: 0.3 mg/kg-day
Daphnia magna
  NOEC: 3.1 mg/L
Folsomia candida
  NOEC: 56 mg/kg
Oncorhynchus mykiss
  NOEC: 2 mg/L
Rattus norvegicus; developmental, development
  NOAEL: 4 mg/kg-day
Rattus norvegicus; reproduction developmental, body weight
  NOAEL: 3.39 mg/kg-day

## CCCC(=O)Oc1c(Br)cc(C#N)cc1Br [Bromoxynil butyrate]
Anas platyrhynchos; chronic/long-term
  NOAEL: 15.9 mg/kg-day
Apis mellifera; dermal
  LD50: 199 µg/piece
Apis mellifera; oral, unspecified
  LD50: 76.4 µg/piece
Colinus virginianus; diet
  LD50: > 190 mg/kg-day
Colinus virginianus
  LD50: 420 mg/kg-day
Folsomia candida
  NOEC: 125 mg/kg
Rattus norvegicus; M/F
  LD50: 116 mg/kg-day
